Experimental findings from patent US10995101B2, “2-oxo-thiazole derivatives as A2A inhibitors and compounds for use in the treatment of cancers” (iTeos Therapeutics SA, priority 2017, dated 2021) are described below.

For one test, the target named is A2AR (Mus musculus, UniProt Q60613). The conditions noted are these: 10 mg/kg PO 30 min prior to CGS21680; score observed in at least 60-100% of mice for 30 minutes.
Another test deals with A2A receptor (Homo sapiens, UniProt P29274). Description: Modulation of pCREB in human immune cells. Format: cell-based. Details: endogenous in cells; host or cells: human CD3+ T cells isolated from venous blood of healthy volunteers. The conditions noted are these: read-out: IC50 of pCREB inhibition. As for the experimental part: The A2A receptor is known to mediate CREB phosphorylation.
Chain of A2A receptor (P29274 whole entry): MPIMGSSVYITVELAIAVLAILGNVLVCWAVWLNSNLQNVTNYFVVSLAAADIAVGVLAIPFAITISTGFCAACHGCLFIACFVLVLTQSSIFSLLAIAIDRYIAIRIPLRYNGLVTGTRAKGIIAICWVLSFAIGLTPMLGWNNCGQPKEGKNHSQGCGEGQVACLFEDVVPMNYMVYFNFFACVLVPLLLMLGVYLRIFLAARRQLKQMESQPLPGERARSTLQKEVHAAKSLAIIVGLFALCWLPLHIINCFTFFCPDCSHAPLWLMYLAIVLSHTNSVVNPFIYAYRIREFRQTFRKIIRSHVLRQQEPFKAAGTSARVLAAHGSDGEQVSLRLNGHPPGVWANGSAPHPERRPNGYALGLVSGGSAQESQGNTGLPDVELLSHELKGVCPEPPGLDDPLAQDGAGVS
Venous blood from healthy volunteers, all of whom signed an informed consent approved by the Ethics Committee (FOR-UIC-BV-050-01-01 ICF_HBS_HD Version 5.0), was obtained via ImmuneHealth (Centre Hospitalier Universitaire Tivoli, La Louviere, Belgium). […] All dilutions were prepared in RPMI1640 medium (with UltraGlutamine; Lonza, Verviers, Belgium), and cells were incubated with compounds in a 37° C. humidified tissue culture incubator with 5% CO2. After stimulation, cells were fixed and permeabilized, followed by intracellular staining using mouse anti-human pCREB antibodies (Clone J151-21; BD Biosciences) at room temperature. Data were acquired using an LSRFortessa flow cytometer (BD Biosciences) and analyzed using FlowJo software (FlowJo, LLC, Ashland, Oreg.).

The term IC50 denotes the concentration that gives 50% inhibition.

Chain of A2AR (Q60613 whole entry): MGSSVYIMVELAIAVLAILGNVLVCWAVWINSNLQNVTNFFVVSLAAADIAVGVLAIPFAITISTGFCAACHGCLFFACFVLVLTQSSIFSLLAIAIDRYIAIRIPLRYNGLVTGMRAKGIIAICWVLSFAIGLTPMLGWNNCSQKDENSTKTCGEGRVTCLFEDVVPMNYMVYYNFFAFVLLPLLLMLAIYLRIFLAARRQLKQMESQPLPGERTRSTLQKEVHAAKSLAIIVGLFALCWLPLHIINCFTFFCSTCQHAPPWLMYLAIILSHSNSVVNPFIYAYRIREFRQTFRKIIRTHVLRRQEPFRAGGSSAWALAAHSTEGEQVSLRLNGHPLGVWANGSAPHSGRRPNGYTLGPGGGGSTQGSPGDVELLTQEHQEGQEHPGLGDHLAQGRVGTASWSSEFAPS

With `NC(=O)COc1cc(N2CCN(CCn3c(=O)sc4c3nc(N)n3nc(-c5ccco5)nc43)CC2)c(F)cc1F` [Compound 4, 2-(5-(4-(2-(5-amino-8-(furan-2-yl)-2-oxothiazolo[5,4-e][1,2,4]triazolo [1,5-c]pyrimidin-3(2H)-yl)ethyl)piperazin-1-yl)-2,4-difluorophenoxy)acetamide], the “Score (locomotion / immobility)” value at A2AR was “+++”. In addition, on A2A receptor, the IC50 was determined as 20 nM.
